Experimental data reported in patent US10196357B2, “Biaryl compositions and methods for modulating a kinase cascade” (Athenex, Inc., priority 2007, dated 2019).

What was measured:
[1] = molecular target: isolated FAK (Homo sapiens, UniProt Q05397); experiment: titration against isolated FAK; assay type: biochemical; conditions: titration data
[2] = molecular target: PKCα(h) (Homo sapiens, UniProt P17252); experiment: isolated kinase activity, PKCα; assay type: biochemical; conditions: compound @ 10 μM
Text: (§1) Table 8 illustrates percent activity of isolated kinases in the presence of the AstraZeneca ATP-competitive inhibitor (KX2-328, AZ-28) or KX2-391 relative to control (untreated) isolated kinases.

[3] = molecular target: Lck(h) (Homo sapiens, UniProt P06239); experiment: isolated kinase activity, Lck; assay type: biochemical; conditions: compound @ 10 μM
Text: as §1

[4] = molecular target: ZAP-70(h) (Homo sapiens, UniProt P43403); experiment: isolated kinase activity, ZAP-70; assay type: biochemical; conditions: compound @ 10 μM
Text: as §1

[5] = tested on: Caspase-3 cleavage; experiment: induction of apoptosis via Caspase 3 cleavage; assay type: cell-based; conditions: HT29 and c-Src527F/NIH-3T3 cells
Experimental: (§2) HT29 (colon cancer) and c-Src527F/NIH-3T3 (Src transformed) cell lines were treated with KX2-391 or with AstraZeneca's ATP competitive Src inhibitor AZ28. AZ28 serves as a positive comparator to show what a validated Src inhibitor should do in these assays. After treatment with compound, cells were lysed, subjected to PAGE and probed with a battery of antibodies. […] In addition, off-target protein phosphorylation was also investigated. Further, induction of apoptosis was evaluated via Caspase 3 cleavage. Multiple doses of each compound were tested because the trends in response to increasing drug concentration are the most reliable indicator of activity.
(§3) The same range of multiples of the GI50 for AZ28 in these two cell lines was run as a comparison.
Cleavage of Caspase-3 is a good measure of induction of apoptosis.

[6] = tested on: FAK Tyr 925; experiment: intracellular phosphorylation, FAK Tyr 925; assay type: cell-based; conditions: whole cells
Experimental: as §2, §3
KX2-391 and AZ28 inhibited Src transphosphorylation.

[7] = tested on: protein tyrosine kinases (PTKs); experiment: selectivity for protein tyrosine kinases in whole cells; assay type: cell-based; conditions: as compared to Dasatinib
Text: The compounds of the invention are selective for protein tyrosine kinases (PTKs). […] SYF cells are mouse fibroblasts that lack the Src kinase family members Src, Yes and Fyn.

[8] = tested on: Daoy; experiment: brain tumor cell growth inhibition, Daoy; assay type: cell-based, Human; conditions: desmoplastic cerebellar medulloblastoma, read-out: IC50 (title: GI50)
[9] = tested on: EGFR tyrosine kinase autophosphorylation; experiment: EGFR tyrosine kinase autophosphorylation in cells; assay type: cell-based; conditions: tumor cells, FIG. 9, EGF Y845
Experimental: as §2, §3
This site is not a direct Src phosphorylation site.

[10] = tested on: ZAP70 Y319; experiment: whole cell phosphorylation, ZAP70; assay type: cell-based; conditions: whole cells
[11] = tested on: MOLT-4 (Adult lymphoblastic leukemia); experiment: growth inhibition, MOLT-4; assay type: cell-based, Human
[12] = tested on: Caki-2; experiment: renal tumor cell growth inhibition, Caki-2; assay type: cell-based, Human; conditions: Caki-2, clear cell carcinoma
Experimental: (§4) These GI50s were determined using standard tumor growth inhibition assays, similar to those described in detail in this Example 7.

[13] = tested on: SK-N-MC; experiment: brain tumor cell growth inhibition, SK-N-MC; assay type: cell-based, Human; conditions: neuroepithelioma, read-out: IC50 (title: GI50)
[14] = tested on: SK-N-FI; experiment: brain tumor cell growth inhibition, SK-N-FI; assay type: cell-based, Human; conditions: neuroblastoma, read-out: IC50 (title: GI50)
[15] = tested on: Lck Y405; experiment: whole cell phosphorylation, Lck; assay type: cell-based; conditions: whole cells
[16] = tested on: Ba/F3 + BCR-Abl T315I mutant; experiment: MTT growth inhibition, Ba/F3 + BCR-Abl T315I; assay type: cell-based; conditions: 96 hrs
Text: Cultures of Ba/F3 cells were also transfected to express wild-type (WT) Bcr-Abl, E255K mutation of Bcr-Abl, or T315I mutation of Bcr-Abl and cultured in 96-well plates in complete media without IL-3. The Ba/F3 cell line is rendered Gleevec resistant when the mutation in the Bcr/Abl tyrosine kinase […] is present. […] All assays are in triplicate.

[17] = tested on: FAK Y397; experiment: FAK autophosphorylation in cells; assay type: cell-based; conditions: c-Src527F/NIH3T3 cells
Experimental: as §2, §3
FAK Y397 is mainly a FAK autophosphorylation site and only a poor Src transphorylation site. AZ28 is […] a potent FAK inhibitor (see isolated enzyme data in Table 8). However, no inhibition of FAK autophosphorylation in c-Src527F/NIH3T3 cells is seen with KX-391.

[18] = tested on: 769-P; experiment: renal tumor cell growth inhibition, 769-P; assay type: cell-based, Human; conditions: renal cell adenocarcinoma
Experimental: as §4

[19] = tested on: Jurkat (Adult T cell leukemia); experiment: growth inhibition, Jurkat; assay type: cell-based, Human

Sequence of isolated FAK (Q05397 whole entry): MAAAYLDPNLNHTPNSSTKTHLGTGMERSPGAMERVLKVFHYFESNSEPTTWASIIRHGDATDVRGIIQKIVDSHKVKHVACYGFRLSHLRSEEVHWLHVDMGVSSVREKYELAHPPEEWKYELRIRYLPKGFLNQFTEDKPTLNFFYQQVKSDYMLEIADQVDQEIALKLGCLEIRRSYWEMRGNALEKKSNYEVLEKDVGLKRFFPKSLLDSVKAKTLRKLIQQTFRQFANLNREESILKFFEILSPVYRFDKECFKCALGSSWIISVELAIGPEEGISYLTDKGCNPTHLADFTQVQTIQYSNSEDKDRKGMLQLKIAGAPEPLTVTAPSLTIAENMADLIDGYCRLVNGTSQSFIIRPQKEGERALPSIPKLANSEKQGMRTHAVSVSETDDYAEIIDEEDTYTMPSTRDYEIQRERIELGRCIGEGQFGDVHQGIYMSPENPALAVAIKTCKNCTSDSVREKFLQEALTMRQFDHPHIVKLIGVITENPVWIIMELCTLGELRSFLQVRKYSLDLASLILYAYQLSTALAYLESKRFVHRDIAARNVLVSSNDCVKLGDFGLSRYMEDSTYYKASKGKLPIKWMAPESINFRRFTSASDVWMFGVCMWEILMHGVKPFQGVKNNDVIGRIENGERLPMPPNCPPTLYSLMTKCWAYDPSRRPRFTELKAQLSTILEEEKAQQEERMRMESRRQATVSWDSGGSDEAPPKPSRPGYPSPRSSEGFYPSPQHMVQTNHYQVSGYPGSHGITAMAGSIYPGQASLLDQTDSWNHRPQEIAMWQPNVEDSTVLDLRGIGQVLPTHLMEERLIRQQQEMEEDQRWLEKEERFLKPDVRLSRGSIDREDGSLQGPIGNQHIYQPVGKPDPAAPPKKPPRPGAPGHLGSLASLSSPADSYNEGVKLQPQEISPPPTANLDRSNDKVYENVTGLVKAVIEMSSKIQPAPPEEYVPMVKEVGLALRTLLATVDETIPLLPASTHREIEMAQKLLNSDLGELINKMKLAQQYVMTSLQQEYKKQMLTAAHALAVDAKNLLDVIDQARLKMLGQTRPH
Sequence of ZAP-70(h) (P43403 whole entry): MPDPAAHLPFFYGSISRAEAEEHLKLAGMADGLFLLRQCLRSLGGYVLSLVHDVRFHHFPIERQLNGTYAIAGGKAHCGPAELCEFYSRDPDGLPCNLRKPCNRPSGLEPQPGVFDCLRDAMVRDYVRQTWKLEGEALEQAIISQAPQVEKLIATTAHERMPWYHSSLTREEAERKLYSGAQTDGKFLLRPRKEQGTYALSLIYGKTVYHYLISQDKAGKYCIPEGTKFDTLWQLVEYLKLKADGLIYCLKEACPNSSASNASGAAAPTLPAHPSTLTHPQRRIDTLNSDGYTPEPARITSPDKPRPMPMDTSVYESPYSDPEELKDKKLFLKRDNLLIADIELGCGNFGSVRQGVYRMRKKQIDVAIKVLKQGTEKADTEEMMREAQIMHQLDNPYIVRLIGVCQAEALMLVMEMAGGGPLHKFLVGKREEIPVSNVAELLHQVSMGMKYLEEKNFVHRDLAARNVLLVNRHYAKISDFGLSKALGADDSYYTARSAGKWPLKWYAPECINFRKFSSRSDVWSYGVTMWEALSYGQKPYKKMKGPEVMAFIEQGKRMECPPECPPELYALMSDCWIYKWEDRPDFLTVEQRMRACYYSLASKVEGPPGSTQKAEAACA
Sequence of Lck(h) (P06239 whole entry): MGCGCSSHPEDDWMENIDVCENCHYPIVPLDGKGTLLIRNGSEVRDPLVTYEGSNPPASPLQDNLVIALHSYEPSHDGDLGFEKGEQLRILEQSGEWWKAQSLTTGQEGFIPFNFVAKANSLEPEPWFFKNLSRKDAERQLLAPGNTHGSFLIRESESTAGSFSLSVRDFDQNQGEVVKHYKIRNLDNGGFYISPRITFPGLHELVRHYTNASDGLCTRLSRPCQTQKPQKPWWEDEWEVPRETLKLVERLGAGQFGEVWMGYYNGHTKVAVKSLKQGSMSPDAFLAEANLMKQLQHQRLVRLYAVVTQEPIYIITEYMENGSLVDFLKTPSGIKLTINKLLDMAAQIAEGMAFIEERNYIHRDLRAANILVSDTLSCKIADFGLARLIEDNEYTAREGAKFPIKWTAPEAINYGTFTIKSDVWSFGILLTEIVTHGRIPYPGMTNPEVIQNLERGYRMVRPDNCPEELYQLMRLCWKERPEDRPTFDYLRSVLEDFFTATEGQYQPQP

Row | SMILES | IC50 [1] | percent activity of isolated kinase relative to control [2] | percent activity of isolated kinase relative to control [3] | percent activity of isolated kinase relative to control [4] | induction of apoptosis (Caspase-3 cleavage) [5] | phosphorylation of FAK Tyr 925 (Src transphosphorylation) [6] | PTK selectivity in whole cells [7] | IC50 [8] | EGFR tyrosine kinase autophosphorylation [9] | EGFR tyrosine kinase autophosphorylation ([9]; listed as KX-391) | phosphorylation of ZAP70 Y319 [10] | GI50 [11] | GI50 [12] | IC50 [13] | IC50 [14] | phosphorylation of Lck Y405 [15] | GI50 [16] | FAK Y397 autophosphorylation [17] | GI50 [18] | GI50 [19]
1 | O=C(Cc1ccc(-c2ccc(OCCN3CCOCC3)cc2)cn1)NCc1ccccc1 [KX2-391] | > 48 µM | 111% | 109% | 108% | very effective in inducing apoptosis | inhibited |  |  |  |  |  |  |  |  |  |  |  |  |  | 
2 | O=C(Cc1ccc(-c2ccc(OCCN3CCOCC3)cc2)cn1)NCc1ccccc1 [KXO1] |  |  |  |  |  |  | very high PTK selectivity | 0.0136 µM | not inhibited | less active | not inhibited | 0.013 µM | 0.0392 µM | 0.0058 µM | 0.0017 µM | not inhibited | 0.035 µM | no inhibition | 0.045 µM | 0.01 µM
